According to patent publication US11684607B2, “Secnidazole for use in the treatment of bacterial vaginosis” (priority 2014, dated 2023):

Tested on: bacterial vaginosis
Assay: Telephone diary questionnaire on vaginal discharge and odor (five point scale), mITT population
Format: in vivo, human
Conditions: for proportion of women reporting 3-5 for vaginal discharge / proportion of women reporting 3-5 for vaginal odor / proportion of women reporting 4-5 for vaginal discharge / proportion of women reporting 4-5 for vaginal odor: 2 g dose; for Discharge 1 point (Normal/Not an Issue): number of women / Discharge 1 point (Normal/Not an Issue): proportion of women / Discharge 2 points (Mildly Abnormal): number of women / Discharge 2 points (Mildly Abnormal): proportion of women / Discharge 3 points (Moderately Abnormal): number of women / Discharge 3 points (Moderately Abnormal): proportion of women / Discharge 4 points (Severely Abnormal): number of women / Discharge 4 points (Severely Abnormal): proportion of women / Discharge 5 points (Very Severely Abnormal): number of women / Discharge 5 points (Very Severely Abnormal): proportion of women / Odor 1 point (Normal/Not an Issue): number of women / Odor 1 point (Normal/Not an Issue): proportion of women / Odor 2 points (Mildly Abnormal): number of women / Odor 2 points (Mildly Abnormal): proportion of women / Odor 3 points (Moderately Abnormal): number of women / Odor 3 points (Moderately Abnormal): proportion of women / Odor 4 points (Severely Abnormal): number of women / Odor 4 points (Severely Abnormal): proportion of women / Odor 5 points (Very Severely Abnormal): number of women / Odor 5 points (Very Severely Abnormal): proportion of women: 2 g

Cc1ncc([N+](=O)[O-])n1CC(C)O (stereo not shown) [SYM-1219, 1-(2-hydroxypropyl)-2-methyl-5-nitromidazole]
proportion of women reporting 3-5 for vaginal discharge (day 1): 59% | proportion of women reporting 3-5 for vaginal odor (day 1): 66% | proportion of women reporting 4-5 for vaginal discharge (day 1): 36% | proportion of women reporting 4-5 for vaginal odor (day 1): 38% | proportion of women reporting 3-5 for vaginal discharge (day 3 (~48 hours)): 30% | proportion of women reporting 3-5 for vaginal odor (day 3 (~48 hours)): 20% | proportion of women reporting 4-5 for vaginal discharge (day 3 (~48 hours)): 11% | proportion of women reporting 4-5 for vaginal odor (day 3 (~48 hours)): 9% | proportion of women reporting 3-5 for vaginal discharge (day 7): 14% | proportion of women reporting 3-5 for vaginal odor (day 7): 9% | proportion of women reporting 4-5 for vaginal discharge (day 7): 0% | proportion of women reporting 4-5 for vaginal odor (day 7): 0% | Discharge 1 point (Normal/Not an Issue): number of women (Day 1): 6 | Discharge 1 point (Normal/Not an Issue): proportion of women (Day 1): 10% | Discharge 2 points (Mildly Abnormal): number of women (Day 1): 18 | Discharge 2 points (Mildly Abnormal): proportion of women (Day 1): 31% | Discharge 3 points (Moderately Abnormal): number of women (Day 1): 13 | Discharge 3 points (Moderately Abnormal): proportion of women (Day 1): 22% | Discharge 4 points (Severely Abnormal): number of women (Day 1): 17 | Discharge 4 points (Severely Abnormal): proportion of women (Day 1): 29% | Discharge 5 points (Very Severely Abnormal): number of women (Day 1): 4 | Discharge 5 points (Very Severely Abnormal): proportion of women (Day 1): 7% | Odor 1 point (Normal/Not an Issue): number of women (Day 1): 8 | Odor 1 point (Normal/Not an Issue): proportion of women (Day 1): 14% | Odor 2 points (Mildly Abnormal): number of women (Day 1): 12 | Odor 2 points (Mildly Abnormal): proportion of women (Day 1): 21% | Odor 3 points (Moderately Abnormal): number of women (Day 1): 16 | Odor 3 points (Moderately Abnormal): proportion of women (Day 1): 28% | Odor 4 points (Severely Abnormal): number of women (Day 1): 17 | Odor 4 points (Severely Abnormal): proportion of women (Day 1): 29% | Odor 5 points (Very Severely Abnormal): number of women (Day 1): 5 | Odor 5 points (Very Severely Abnormal): proportion of women (Day 1): 9% | Discharge 1 point (Normal/Not an Issue): number of women (Day 2): 9 | Discharge 1 point (Normal/Not an Issue): proportion of women (Day 2): 17% | Discharge 2 points (Mildly Abnormal): number of women (Day 2): 20 | Discharge 2 points (Mildly Abnormal): proportion of women (Day 2): 38% | Discharge 3 points (Moderately Abnormal): number of women (Day 2): 15 | Discharge 3 points (Moderately Abnormal): proportion of women (Day 2): 29% | Discharge 4 points (Severely Abnormal): number of women (Day 2): 3 | Discharge 4 points (Severely Abnormal): proportion of women (Day 2): 6% | Discharge 5 points (Very Severely Abnormal): number of women (Day 2): 5 | Discharge 5 points (Very Severely Abnormal): proportion of women (Day 2): 10% | Odor 1 point (Normal/Not an Issue): number of women (Day 2): 10 | Odor 1 point (Normal/Not an Issue): proportion of women (Day 2): 19% | Odor 2 points (Mildly Abnormal): number of women (Day 2): 23 | Odor 2 points (Mildly Abnormal): proportion of women (Day 2): 44% | Odor 3 points (Moderately Abnormal): number of women (Day 2): 10 | Odor 3 points (Moderately Abnormal): proportion of women (Day 2): 19% | Odor 4 points (Severely Abnormal): number of women (Day 2): 8 | Odor 4 points (Severely Abnormal): proportion of women (Day 2): 15% | Odor 5 points (Very Severely Abnormal): number of women (Day 2): 1 | Odor 5 points (Very Severely Abnormal): proportion of women (Day 2): 2% | Discharge 1 point (Normal/Not an Issue): number of women (Day 3): 13 | Discharge 1 point (Normal/Not an Issue): proportion of women (Day 3): 24% | Discharge 2 points (Mildly Abnormal): number of women (Day 3): 25 | Discharge 2 points (Mildly Abnormal): proportion of women (Day 3): 46% | Discharge 3 points (Moderately Abnormal): number of women (Day 3): 10 | Discharge 3 points (Moderately Abnormal): proportion of women (Day 3): 19% | Discharge 4 points (Severely Abnormal): number of women (Day 3): 3 | Discharge 4 points (Severely Abnormal): proportion of women (Day 3): 6% | Discharge 5 points (Very Severely Abnormal): number of women (Day 3): 3 | Discharge 5 points (Very Severely Abnormal): proportion of women (Day 3): 6% | Odor 1 point (Normal/Not an Issue): number of women (Day 3): 20 | Odor 1 point (Normal/Not an Issue): proportion of women (Day 3): 37% | Odor 2 points (Mildly Abnormal): number of women (Day 3): 23 | Odor 2 points (Mildly Abnormal): proportion of women (Day 3): 43% | Odor 3 points (Moderately Abnormal): number of women (Day 3): 6 | Odor 3 points (Moderately Abnormal): proportion of women (Day 3): 11% | Odor 4 points (Severely Abnormal): number of women (Day 3): 4 | Odor 4 points (Severely Abnormal): proportion of women (Day 3): 7% | Odor 5 points (Very Severely Abnormal): number of women (Day 3): 1 | Odor 5 points (Very Severely Abnormal): proportion of women (Day 3): 2% | Discharge 1 point (Normal/Not an Issue): number of women (Day 4): 19 | Discharge 1 point (Normal/Not an Issue): proportion of women (Day 4): 35% | Discharge 2 points (Mildly Abnormal): number of women (Day 4): 22 | Discharge 2 points (Mildly Abnormal): proportion of women (Day 4): 40% | Discharge 3 points (Moderately Abnormal): number of women (Day 4): 8 | Discharge 3 points (Moderately Abnormal): proportion of women (Day 4): 15% | Discharge 4 points (Severely Abnormal): number of women (Day 4): 5 | Discharge 4 points (Severely Abnormal): proportion of women (Day 4): 9% | Discharge 5 points (Very Severely Abnormal): number of women (Day 4): 1 | Discharge 5 points (Very Severely Abnormal): proportion of women (Day 4): 2% | Odor 1 point (Normal/Not an Issue): number of women (Day 4): 27 | Odor 1 point (Normal/Not an Issue): proportion of women (Day 4): 49% | Odor 2 points (Mildly Abnormal): number of women (Day 4): 18 | Odor 2 points (Mildly Abnormal): proportion of women (Day 4): 33% | Odor 3 points (Moderately Abnormal): number of women (Day 4): 6 | Odor 3 points (Moderately Abnormal): proportion of women (Day 4): 11% | Odor 4 points (Severely Abnormal): number of women (Day 4): 4 | Odor 4 points (Severely Abnormal): proportion of women (Day 4): 7% | Odor 5 points (Very Severely Abnormal): number of women (Day 4): 0 | Odor 5 points (Very Severely Abnormal): proportion of women (Day 4): 0% | Discharge 1 point (Normal/Not an Issue): number of women (Day 5): 21 | Discharge 1 point (Normal/Not an Issue): proportion of women (Day 5): 43% | Discharge 2 points (Mildly Abnormal): number of women (Day 5): 17 | Discharge 2 points (Mildly Abnormal): proportion of women (Day 5): 35% | Discharge 3 points (Moderately Abnormal): number of women (Day 5): 4 | Discharge 3 points (Moderately Abnormal): proportion of women (Day 5): 8% | Discharge 4 points (Severely Abnormal): number of women (Day 5): 6 | Discharge 4 points (Severely Abnormal): proportion of women (Day 5): 12% | Discharge 5 points (Very Severely Abnormal): number of women (Day 5): 1 | Discharge 5 points (Very Severely Abnormal): proportion of women (Day 5): 2% | Odor 1 point (Normal/Not an Issue): number of women (Day 5): 28 | Odor 1 point (Normal/Not an Issue): proportion of women (Day 5): 58% | Odor 2 points (Mildly Abnormal): number of women (Day 5): 12 | Odor 2 points (Mildly Abnormal): proportion of women (Day 5): 25% | Odor 3 points (Moderately Abnormal): number of women (Day 5): 5 | Odor 3 points (Moderately Abnormal): proportion of women (Day 5): 10% | Odor 4 points (Severely Abnormal): number of women (Day 5): 3 | Odor 4 points (Severely Abnormal): proportion of women (Day 5): 6% | Odor 5 points (Very Severely Abnormal): number of women (Day 5): 0 | Odor 5 points (Very Severely Abnormal): proportion of women (Day 5): 0% | Discharge 1 point (Normal/Not an Issue): number of women (Day 6): 22 | Discharge 1 point (Normal/Not an Issue): proportion of women (Day 6): 47% | Discharge 2 points (Mildly Abnormal): number of women (Day 6): 15 | Discharge 2 points (Mildly Abnormal): proportion of women (Day 6): 32% | Discharge 3 points (Moderately Abnormal): number of women (Day 6): 7 | Discharge 3 points (Moderately Abnormal): proportion of women (Day 6): 15% | Discharge 4 points (Severely Abnormal): number of women (Day 6): 2 | Discharge 4 points (Severely Abnormal): proportion of women (Day 6): 4% | Discharge 5 points (Very Severely Abnormal): number of women (Day 6): 1 | Discharge 5 points (Very Severely Abnormal): proportion of women (Day 6): 2% | Odor 1 point (Normal/Not an Issue): number of women (Day 6): 29 | Odor 1 point (Normal/Not an Issue): proportion of women (Day 6): 62% | Odor 2 points (Mildly Abnormal): number of women (Day 6): 12 | Odor 2 points (Mildly Abnormal): proportion of women (Day 6): 26% | Odor 3 points (Moderately Abnormal): number of women (Day 6): 5 | Odor 3 points (Moderately Abnormal): proportion of women (Day 6): 11% | Odor 4 points (Severely Abnormal): number of women (Day 6): 1 | Odor 4 points (Severely Abnormal): proportion of women (Day 6): 2% | Odor 5 points (Very Severely Abnormal): number of women (Day 6): 0 | Odor 5 points (Very Severely Abnormal): proportion of women (Day 6): 0% | Discharge 1 point (Normal/Not an Issue): number of women (Day 7): 24 | Discharge 1 point (Normal/Not an Issue): proportion of women (Day 7): 55% | Discharge 2 points (Mildly Abnormal): number of women (Day 7): 14 | Discharge 2 points (Mildly Abnormal): proportion of women (Day 7): 32% | Discharge 3 points (Moderately Abnormal): number of women (Day 7): 6 | Discharge 3 points (Moderately Abnormal): proportion of women (Day 7): 14% | Discharge 4 points (Severely Abnormal): number of women (Day 7): 0 | Discharge 4 points (Severely Abnormal): proportion of women (Day 7): 0% | Discharge 5 points (Very Severely Abnormal): number of women (Day 7): 0 | Discharge 5 points (Very Severely Abnormal): proportion of women (Day 7): 0% | Odor 1 point (Normal/Not an Issue): number of women (Day 7): 33 | Odor 1 point (Normal/Not an Issue): proportion of women (Day 7): 75% | Odor 2 points (Mildly Abnormal): number of women (Day 7): 7 | Odor 2 points (Mildly Abnormal): proportion of women (Day 7): 16% | Odor 3 points (Moderately Abnormal): number of women (Day 7): 4 | Odor 3 points (Moderately Abnormal): proportion of women (Day 7): 9% | Odor 4 points (Severely Abnormal): number of women (Day 7): 0 | Odor 4 points (Severely Abnormal): proportion of women (Day 7): 0% | Odor 5 points (Very Severely Abnormal): number of women (Day 7): 0 | Odor 5 points (Very Severely Abnormal): proportion of women (Day 7): 0% | Discharge 1 point (Normal/Not an Issue): number of women (EOS): 36 | Discharge 1 point (Normal/Not an Issue): proportion of women (EOS): 68% | Discharge 2 points (Mildly Abnormal): number of women (EOS): 9 | Discharge 2 points (Mildly Abnormal): proportion of women (EOS): 17% | Discharge 3 points (Moderately Abnormal): number of women (EOS): 4 | Discharge 3 points (Moderately Abnormal): proportion of women (EOS): 8% | Discharge 4 points (Severely Abnormal): number of women (EOS): 3 | Discharge 4 points (Severely Abnormal): proportion of women (EOS): 6% | Discharge 5 points (Very Severely Abnormal): number of women (EOS): 1 | Discharge 5 points (Very Severely Abnormal): proportion of women (EOS): 2% | Odor 1 point (Normal/Not an Issue): number of women (EOS): 36 | Odor 1 point (Normal/Not an Issue): proportion of women (EOS): 69% | Odor 2 points (Mildly Abnormal): number of women (EOS): 7 | Odor 2 points (Mildly Abnormal): proportion of women (EOS): 13% | Odor 3 points (Moderately Abnormal): number of women (EOS): 9 | Odor 3 points (Moderately Abnormal): proportion of women (EOS): 17% | Odor 4 points (Severely Abnormal): number of women (EOS): 0 | Odor 4 points (Severely Abnormal): proportion of women (EOS): 0% | Odor 5 points (Very Severely Abnormal): number of women (EOS): 0 | Odor 5 points (Very Severely Abnormal): proportion of women (EOS): 0%
